# From ChEMBL document CHEMBL6109084 (Eur J Med Chem, 2025)
# pIC50: −log10 of the molar value. Activity calls are given as the source filed them. No cut-off for these calls is given here.
# Columns and labels:
# Plasma [1] = assay: Anticoagulant activity in citrated human plasma assessed as prolongation of prothrombin time incubated for 3 mins by PT reagent based automated coagulometric analysis; format: functional, cell-free
# Plasma kallikrein = Plasma kallikrein (Homo sapiens, UniProt P03952); assay: Inhibition of PKal (unknown origin) using H-D-Pro-Phe-Arg-pNA.2HCl as substrate incubated for 30 mins followed by substrate addition and measured after 60 mins by microplate reader analysis
# Plasma kallikrein, sequence (P03952 20-390 limits assumed): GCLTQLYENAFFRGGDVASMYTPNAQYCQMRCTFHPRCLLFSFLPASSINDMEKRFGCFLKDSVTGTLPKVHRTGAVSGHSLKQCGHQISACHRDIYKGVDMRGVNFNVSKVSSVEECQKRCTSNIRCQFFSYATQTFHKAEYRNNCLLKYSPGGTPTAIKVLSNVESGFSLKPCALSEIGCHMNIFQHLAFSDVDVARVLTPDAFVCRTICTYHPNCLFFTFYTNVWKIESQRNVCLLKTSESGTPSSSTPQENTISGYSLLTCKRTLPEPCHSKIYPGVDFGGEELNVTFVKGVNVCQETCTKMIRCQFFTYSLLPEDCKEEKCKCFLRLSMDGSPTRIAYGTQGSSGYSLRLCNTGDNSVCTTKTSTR
# Plasma kallikrein, sequence (P03952 391-638 limits assumed): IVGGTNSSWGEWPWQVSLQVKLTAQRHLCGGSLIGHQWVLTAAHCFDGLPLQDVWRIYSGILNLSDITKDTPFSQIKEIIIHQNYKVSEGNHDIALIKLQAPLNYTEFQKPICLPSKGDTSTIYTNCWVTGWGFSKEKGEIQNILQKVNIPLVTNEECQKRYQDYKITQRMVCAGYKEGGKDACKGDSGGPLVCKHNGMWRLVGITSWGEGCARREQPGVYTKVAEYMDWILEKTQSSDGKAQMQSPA
# Prothrombin = Prothrombin (Homo sapiens, UniProt P00734); assay: Inhibition of thrombin (unknown origin) using H-D-Phe-Pip-Arg-pNA.2HCl as substrate incubated for 30 mins followed by substrate addition and measured after 60 mins by microplate reader analysis
# Plasminogen = Plasminogen (Homo sapiens, UniProt P00747); assay: Inhibition of plasmin (unknown origin) using PyroGlu-Phe-Lys-pNA.HCl as substrate incubated for 30 mins followed by substrate addition and measured after 60 mins by microplate reader analysis
# Plasminogen, sequence (P00747 97-580 limits assumed): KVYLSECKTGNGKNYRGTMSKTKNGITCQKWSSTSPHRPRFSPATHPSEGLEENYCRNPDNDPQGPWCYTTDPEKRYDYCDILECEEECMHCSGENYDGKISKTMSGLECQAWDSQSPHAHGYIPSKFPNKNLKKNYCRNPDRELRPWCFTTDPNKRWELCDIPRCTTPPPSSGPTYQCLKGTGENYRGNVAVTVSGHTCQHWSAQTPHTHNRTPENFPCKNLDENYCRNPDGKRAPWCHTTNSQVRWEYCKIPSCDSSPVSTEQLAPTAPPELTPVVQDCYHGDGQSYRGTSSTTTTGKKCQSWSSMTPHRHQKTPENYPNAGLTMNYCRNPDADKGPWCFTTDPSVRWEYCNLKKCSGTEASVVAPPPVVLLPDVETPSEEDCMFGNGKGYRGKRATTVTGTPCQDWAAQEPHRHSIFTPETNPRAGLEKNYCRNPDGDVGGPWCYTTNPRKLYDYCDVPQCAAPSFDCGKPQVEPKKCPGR
# Plasminogen, sequence (P00747 581-810 limits assumed): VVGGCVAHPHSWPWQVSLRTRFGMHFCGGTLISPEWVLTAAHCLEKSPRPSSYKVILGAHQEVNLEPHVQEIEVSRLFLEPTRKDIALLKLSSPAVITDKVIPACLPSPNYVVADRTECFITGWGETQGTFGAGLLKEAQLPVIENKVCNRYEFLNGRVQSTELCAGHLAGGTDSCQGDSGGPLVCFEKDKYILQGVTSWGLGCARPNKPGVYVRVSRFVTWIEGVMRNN
# Trypsin = Trypsin (Homo sapiens, UniProt P07477+P07478+P35030); assay: Inhibition of trypsin (unknown origin) using Bz-Ile-Glu(gamma-OR)-Gly-Arg-pNA.HCl as substrate incubated for 30 mins followed by substrate addition and measured after 60 mins by microplate reader analysis; format: protein assay
# Chymotrypsin = Chymotrypsin (Homo sapiens, UniProt Q99895+P17538+P40313+Q6GPI1); assay: Inhibition of chymotrypsin (unknown origin) using N-Suc-Ala-Ala-Pro-Phe-pNA as substrate incubated for 30 mins followed by substrate addition and measured after 60 mins by microplate reader analysis; format: protein assay
# HepG2 = assay: Cytotoxicity against human HepG2 cells assessed as reduction in cell viability at 1 to 50 uM incubated for 24 hrs by MTT assay; format: toxicity, cell-based; details: hepg2, 24 h, dose 1-50 µM
# Mus musculus [2] = assay: Antithrombotic activity in FeCl3-induced carotid arterial thrombosis C57BL/6J mouse model assessed as increase in blood flow velocity at 10 mg/kg, po measured after 0.5 to 4 hrs; format: functional, organism-based; details: time 0.5-4 hrs
# Mus musculus [3] = assay: Antithrombotic activity in po dosed FeCl3-induced carotid arterial thrombosis C57BL/6J mouse model assessed as increase in mean blood flow velocity measured after 0.5 hrs; format: functional, organism-based; details: dose 5-30 mg/kg
# Oryctolagus cuniculus [4] = assay: Antithrombotic activity in FeCl3-induced carotid arterial thrombosis male New Zealand white rabbits model assessed as reduction in wet thrombus weight at 6 mg/kg, iv preincubated for 30 mins followed by FeCl3 application for 5 mins and measured after 30 mins relative to control; format: functional, organism-based; details: time 65.0 min
# Oryctolagus cuniculus [5] = assay: Antithrombotic activity in FeCl3-induced carotid arterial thrombosis male New Zealand white rabbits model assessed as reduction in wet thrombus weight at 2 mg/kg, iv preincubated for 30 mins followed by FeCl3 application for 5 mins and measured after 30 mins relative to control; format: functional; design: scale not given: the % may be the effect or the level left; details: time 65 min, 1.083 h
# [6] = Toxicity in C57BL/6J mouse assessed as prolongation of bleeding time at 30 to 60 mg/kg, IG measured after 30 mins by tail bleeding assay; format: organism-based; details: in vivo, po, 0.5 h, dose 30-60 mg/kg
# [7] = Acute toxicity in C57BL/6J mouse assessed as anaphylaxis response at 60 to 100 mg/kg, po administered as single dose for 14 days; format: organism-based; details: in vivo, 336 h, dose 60-100 mg/kg, time 14 day
# [8] = Acute toxicity in C57BL/6J mouse assessed as allergic reactions at 60 to 100 mg/kg, po administered as single dose for 14 days; format: organism-based; details: in vivo, 336 h, dose 60-100 mg/kg, time 14 day
# [9] = Acute toxicity in C57BL/6J mouse assessed as pathological changes in heart at 60 to 100 mg/kg, po administered as single dose for 14 days by H and E staining based analysis; format: organism-based; details: in vivo, 336 h, dose 60-100 mg/kg, time 14 day
# [10] = Acute toxicity in C57BL/6J mouse assessed as pathological changes in lung at 60 to 100 mg/kg, po administered as single dose for 14 days by H and E staining based analysis; format: organism-based; details: in vivo, 336 h, dose 60-100 mg/kg, time 14 day
# [11] = Acute toxicity in C57BL/6J mouse assessed as pathological changes in spleen at 60 to 100 mg/kg, po administered as single dose for 14 days by H and E staining based analysis; format: organism-based; details: in vivo, 336 h, dose 60-100 mg/kg, time 14 day
# [12] = Acute toxicity in C57BL/6J mouse assessed as effect on serum AST level at 60 to 100 mg/kg, po administered as single dose for 14 days; format: organism-based; details: in vivo, 336 h, dose 60-100 mg/kg, time 14 day
# [13] = Acute toxicity in C57BL/6J mouse assessed as effect on serum ALT level at 60 to 100 mg/kg, po administered as single dose for 14 days; format: organism-based; details: in vivo, 336 h, dose 60-100 mg/kg, time 14 day
# [14] = Acute toxicity in C57BL/6J mouse assessed as effect on serum ALP level at 60 to 100 mg/kg, po administered as single dose for 14 days; format: organism-based; details: in vivo, 336 h, dose 60-100 mg/kg, time 14 day
# Oryctolagus cuniculus [15] = assay: Antithrombotic activity in FeCl3-induced carotid arterial thrombosis male New Zealand white rabbits model assessed as reduction in dry thrombus weight at 2 mg/kg, iv preincubated for 30 mins followed by FeCl3 application for 5 and measured after 45 mins relative to control; format: functional; design: scale not given: the % may be the effect or the level left; details: time 80 min, 1.333 h
# Oryctolagus cuniculus [16] = assay: Antithrombotic activity in FeCl3-induced carotid arterial thrombosis male New Zealand white rabbits model assessed as reduction in dry thrombus weight at 6 mg/kg, iv preincubated for 30 mins followed by FeCl3 application for 5 and measured after 45 mins relative to control; format: functional, organism-based; details: time 80.0 min
# [17] = Apparent permeability in MDCK-MDR1 cells; format: ADME, cell-based, Canis lupus familiaris; details: dog
# Plasma [18] = assay: Anticoagulant activity in mouse plasma assessed as prolongation of activated partial thromboplastin time incubated for 3 mins by aPTT reagent based automated coagulometric analysis; format: functional; details: 0.05 h
# [19] = Selectivity index, ratio of IC50 for inhibition of FXIIa (unknown origin) using H-D-ProPhe-Arg-pNA.2HCl as substrate to IC50 for inhibition of human FXIa using p-Glu-Pro-Arg-pNA.HCl as substrate
# [20] = Selectivity index, ratio of IC50 for inhibition of trypsin (unknown origin) using Bz-Ile-Glu(gamma-OR)-Gly-Arg-pNA.HCl as substrate to IC50 for inhibition of human FXIa using p-Glu-Pro-Arg-pNA.HCl as substrate
# [21] = Selectivity index, ratio of IC50 for inhibition of chymotrypsin (unknown origin) using N-Suc-Ala-Ala-Pro-Phe-pNA as substrate to IC50 for inhibition of human FXIa using p-Glu-Pro-Arg-pNA.HCl as substrate
# Mus musculus [22] = assay: In vivo inhibition of FXIa in FeCl3-induced carotid arterial thrombosis C57BL/6J mouse model assessed as decrease in FXIa level in plasma at 5 to 30 mg/kg, po measured after 0.5 hrs by ELISA; format: functional, organism-based; details: dose 5-30 mg/kg
# [23] = Acute toxicity in C57BL/6J mouse assessed as effect on spleen weight at 60 to 100 mg/kg, po measured after 24 hrs; format: organism-based; details: in vivo, dose 60-100 mg/kg
# [24] = Acute toxicity in C57BL/6J mouse assessed as effect on serum aspartate aminotransferase level at 60 to 100 mg/kg, po measured after 24 hrs; format: organism-based; details: in vivo, dose 60-100 mg/kg
smiles,measurement,setting,value
COc1cn(Cc2cc(-c3ccc(N)nc3F)ccn2)c(=O)cc1-c1cc(Cl)ccc1-n1cnnn1,Activity,Plasma [1],inactive
same,pIC50,Plasma kallikrein,6.65
same,pIC50,Prothrombin,< 6.00
same,pIC50,Plasminogen,< 6.00
same,IC50,Trypsin,> 1000 nM
same,IC50,Chymotrypsin,> 1000 nM
same,Activity,HepG2,Non-toxic
same,Activity,Mus musculus [2],Active
same,Activity,Mus musculus [3],Dose-dependent-effect
same,Activity,Oryctolagus cuniculus [4],Active; Outperformed Asundexian Reducing Thrombus Weight
same,Activity,Oryctolagus cuniculus [5],>50%
same,Activity,[6],Non-toxic
same,Activity,[7],Non-toxic
same,Activity,[8],Non-toxic
same,Activity,[9],Non-toxic
same,Activity,[10],Non-toxic
same,Activity,[11],Non-toxic
same,Activity,[12],Non-toxic
same,Activity,[13],Non-toxic
same,Activity,[14],Non-toxic
same,Activity,Oryctolagus cuniculus [15],>50%
same,Activity,Oryctolagus cuniculus [16],Active
same,Papp,[17],0.5 ×10⁻⁶ cm/s
same,EC1.5,Plasma [18],1.6 µM
same,Ratio IC50,[19],> 1000
same,Ratio IC50,[20],> 1000
same,Ratio IC50,[21],> 1000
same,inhibition,Mus musculus [22],Active
same,Activity,[23],Non-toxic
same,Activity,[24],Non-toxic
